Article PMC7026418, “The kinase polypharmacology landscape of clinical PARP inhibitors” (Scientific Reports, 2020)
Read-outs that look alike come from different tables or passages of the source.

Key:
Experiment in all cases: biochemical
Set-up in all cases: DiscoveRx KINOMEscan active site-directed competition binding; percent of control kinase bound to immobilised ligand
TNK1 = molecular target: T1, TNK1 (Homo sapiens, UniProt Q13470)
T1 sequence (Q13470 1-666): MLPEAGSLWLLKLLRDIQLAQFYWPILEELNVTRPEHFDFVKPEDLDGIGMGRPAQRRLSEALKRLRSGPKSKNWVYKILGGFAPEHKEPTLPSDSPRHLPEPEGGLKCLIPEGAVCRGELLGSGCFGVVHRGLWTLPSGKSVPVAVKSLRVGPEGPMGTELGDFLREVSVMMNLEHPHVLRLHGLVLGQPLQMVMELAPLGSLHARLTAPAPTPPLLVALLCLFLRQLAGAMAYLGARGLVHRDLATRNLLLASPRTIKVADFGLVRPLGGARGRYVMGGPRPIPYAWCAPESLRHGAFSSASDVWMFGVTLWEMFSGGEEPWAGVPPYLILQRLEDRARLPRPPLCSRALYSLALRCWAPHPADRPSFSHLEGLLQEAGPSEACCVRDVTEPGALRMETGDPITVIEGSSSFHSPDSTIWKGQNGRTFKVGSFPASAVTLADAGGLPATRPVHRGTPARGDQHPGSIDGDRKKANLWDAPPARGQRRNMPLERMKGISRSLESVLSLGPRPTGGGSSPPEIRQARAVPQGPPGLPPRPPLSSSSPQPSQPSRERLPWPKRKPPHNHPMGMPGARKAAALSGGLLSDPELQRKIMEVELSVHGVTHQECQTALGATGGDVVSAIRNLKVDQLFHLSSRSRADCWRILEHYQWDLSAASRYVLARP

MRCKB = molecular target: T2, MRCKB (Homo sapiens, UniProt Q9Y5S2)
T2 construct: gene CDC42BPB
T2 sequence (Q9Y5S2 whole entry): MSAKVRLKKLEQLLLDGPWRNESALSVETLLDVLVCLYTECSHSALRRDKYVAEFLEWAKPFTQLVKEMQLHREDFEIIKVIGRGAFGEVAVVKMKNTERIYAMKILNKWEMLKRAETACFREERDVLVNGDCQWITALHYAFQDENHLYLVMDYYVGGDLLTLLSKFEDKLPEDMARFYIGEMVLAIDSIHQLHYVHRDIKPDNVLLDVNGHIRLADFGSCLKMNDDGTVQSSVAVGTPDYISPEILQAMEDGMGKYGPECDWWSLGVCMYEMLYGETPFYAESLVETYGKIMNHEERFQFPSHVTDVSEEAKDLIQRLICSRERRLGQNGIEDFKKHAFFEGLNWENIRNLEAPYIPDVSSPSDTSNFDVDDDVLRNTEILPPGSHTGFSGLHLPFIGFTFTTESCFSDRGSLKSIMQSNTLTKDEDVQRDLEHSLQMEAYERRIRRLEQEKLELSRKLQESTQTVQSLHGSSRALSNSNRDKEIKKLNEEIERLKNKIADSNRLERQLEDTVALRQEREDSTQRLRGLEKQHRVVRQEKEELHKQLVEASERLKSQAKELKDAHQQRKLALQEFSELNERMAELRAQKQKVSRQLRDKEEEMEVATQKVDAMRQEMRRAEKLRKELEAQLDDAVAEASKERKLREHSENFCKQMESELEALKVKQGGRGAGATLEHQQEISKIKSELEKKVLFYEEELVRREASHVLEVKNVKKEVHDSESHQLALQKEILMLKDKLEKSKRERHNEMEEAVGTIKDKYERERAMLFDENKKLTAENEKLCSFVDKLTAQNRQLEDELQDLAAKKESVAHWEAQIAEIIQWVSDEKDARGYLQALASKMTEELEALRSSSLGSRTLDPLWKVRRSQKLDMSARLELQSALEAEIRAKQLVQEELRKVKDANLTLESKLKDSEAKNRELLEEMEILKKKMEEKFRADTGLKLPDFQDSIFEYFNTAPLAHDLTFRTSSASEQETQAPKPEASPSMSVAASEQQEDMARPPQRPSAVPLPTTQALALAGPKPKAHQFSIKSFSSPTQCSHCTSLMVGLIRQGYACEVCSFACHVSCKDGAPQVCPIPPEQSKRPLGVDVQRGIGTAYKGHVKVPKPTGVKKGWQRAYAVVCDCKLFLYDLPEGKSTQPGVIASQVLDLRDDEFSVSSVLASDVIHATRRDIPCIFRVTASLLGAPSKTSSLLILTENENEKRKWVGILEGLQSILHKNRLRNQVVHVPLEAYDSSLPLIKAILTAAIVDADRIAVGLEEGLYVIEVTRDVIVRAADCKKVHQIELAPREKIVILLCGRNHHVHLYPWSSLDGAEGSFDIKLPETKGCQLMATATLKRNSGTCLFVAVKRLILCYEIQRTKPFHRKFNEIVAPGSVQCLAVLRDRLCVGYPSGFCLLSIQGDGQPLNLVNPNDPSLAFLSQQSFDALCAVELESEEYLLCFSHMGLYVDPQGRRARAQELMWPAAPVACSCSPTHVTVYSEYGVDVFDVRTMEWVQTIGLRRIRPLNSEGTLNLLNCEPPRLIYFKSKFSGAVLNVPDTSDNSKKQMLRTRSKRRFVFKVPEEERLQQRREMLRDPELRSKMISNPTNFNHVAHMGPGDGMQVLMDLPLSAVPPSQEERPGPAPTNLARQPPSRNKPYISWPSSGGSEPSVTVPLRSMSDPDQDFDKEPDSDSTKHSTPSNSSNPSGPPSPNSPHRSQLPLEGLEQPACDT

BMPR2 = molecular target: T3, BMPR2 (Homo sapiens, UniProt Q13873)
T3 sequence (Q13873 1-1038): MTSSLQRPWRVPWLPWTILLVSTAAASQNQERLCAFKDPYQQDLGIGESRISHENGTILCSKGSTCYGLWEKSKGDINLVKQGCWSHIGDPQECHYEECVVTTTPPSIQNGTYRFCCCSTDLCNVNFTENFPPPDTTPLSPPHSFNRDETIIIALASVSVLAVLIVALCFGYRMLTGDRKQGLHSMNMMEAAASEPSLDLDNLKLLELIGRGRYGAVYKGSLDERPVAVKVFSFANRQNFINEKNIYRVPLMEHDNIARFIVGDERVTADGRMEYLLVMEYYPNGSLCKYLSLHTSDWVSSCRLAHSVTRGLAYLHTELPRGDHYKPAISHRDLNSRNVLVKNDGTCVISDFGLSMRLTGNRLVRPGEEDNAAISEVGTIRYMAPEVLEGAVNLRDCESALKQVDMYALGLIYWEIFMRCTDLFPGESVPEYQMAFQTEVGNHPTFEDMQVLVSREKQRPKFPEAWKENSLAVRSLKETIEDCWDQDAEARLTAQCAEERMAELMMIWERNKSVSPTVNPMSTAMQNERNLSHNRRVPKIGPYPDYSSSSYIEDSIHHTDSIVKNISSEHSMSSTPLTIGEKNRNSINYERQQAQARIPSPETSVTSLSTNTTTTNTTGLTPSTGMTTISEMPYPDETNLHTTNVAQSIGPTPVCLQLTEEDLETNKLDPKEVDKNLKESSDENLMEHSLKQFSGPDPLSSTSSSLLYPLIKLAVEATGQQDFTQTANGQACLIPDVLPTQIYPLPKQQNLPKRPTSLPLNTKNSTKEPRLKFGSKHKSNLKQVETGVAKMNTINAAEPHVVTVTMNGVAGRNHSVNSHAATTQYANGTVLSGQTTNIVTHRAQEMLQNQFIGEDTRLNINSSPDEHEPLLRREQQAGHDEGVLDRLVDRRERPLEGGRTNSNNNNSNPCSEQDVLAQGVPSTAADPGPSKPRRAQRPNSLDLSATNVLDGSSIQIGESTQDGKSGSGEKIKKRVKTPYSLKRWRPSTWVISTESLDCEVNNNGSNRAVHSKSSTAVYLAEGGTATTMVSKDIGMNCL

[1] = molecular target: T4, TYK2(JH2domain-pseudokinase) (Homo sapiens, UniProt P29597)
T4 construct: JH2domain-pseudokinase
T4 sequence (P29597 whole entry): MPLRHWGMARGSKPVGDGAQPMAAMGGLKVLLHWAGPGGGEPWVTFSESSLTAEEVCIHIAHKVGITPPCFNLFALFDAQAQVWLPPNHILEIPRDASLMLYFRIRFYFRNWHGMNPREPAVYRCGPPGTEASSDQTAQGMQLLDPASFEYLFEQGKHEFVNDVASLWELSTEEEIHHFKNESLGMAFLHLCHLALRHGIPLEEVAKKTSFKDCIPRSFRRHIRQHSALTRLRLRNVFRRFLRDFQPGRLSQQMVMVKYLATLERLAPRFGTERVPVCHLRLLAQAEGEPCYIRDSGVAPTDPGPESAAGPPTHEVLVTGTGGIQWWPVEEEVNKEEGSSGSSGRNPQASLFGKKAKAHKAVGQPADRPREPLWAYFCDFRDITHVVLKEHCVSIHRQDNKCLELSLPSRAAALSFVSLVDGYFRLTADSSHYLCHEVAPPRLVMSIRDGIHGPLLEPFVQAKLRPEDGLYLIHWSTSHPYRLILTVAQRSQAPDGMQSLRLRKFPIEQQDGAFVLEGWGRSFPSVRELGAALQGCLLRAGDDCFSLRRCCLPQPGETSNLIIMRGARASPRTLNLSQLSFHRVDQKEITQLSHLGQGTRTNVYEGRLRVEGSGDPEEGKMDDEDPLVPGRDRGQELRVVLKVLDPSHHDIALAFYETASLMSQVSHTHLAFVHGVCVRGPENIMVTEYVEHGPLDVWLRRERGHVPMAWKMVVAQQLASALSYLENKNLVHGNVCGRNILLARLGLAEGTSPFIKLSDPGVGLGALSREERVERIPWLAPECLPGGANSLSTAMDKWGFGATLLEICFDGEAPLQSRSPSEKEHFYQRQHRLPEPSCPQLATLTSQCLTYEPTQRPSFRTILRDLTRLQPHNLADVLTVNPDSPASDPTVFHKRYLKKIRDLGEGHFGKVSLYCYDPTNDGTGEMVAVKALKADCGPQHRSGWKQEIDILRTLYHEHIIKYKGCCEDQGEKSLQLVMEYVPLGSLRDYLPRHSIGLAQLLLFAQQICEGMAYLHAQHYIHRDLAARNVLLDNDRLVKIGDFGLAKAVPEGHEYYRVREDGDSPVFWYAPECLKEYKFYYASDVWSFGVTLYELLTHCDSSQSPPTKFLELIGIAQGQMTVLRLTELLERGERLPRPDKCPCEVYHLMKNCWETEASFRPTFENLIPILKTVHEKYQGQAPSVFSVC

SNARK = molecular target: T5, SNARK (Homo sapiens, UniProt Q9H093)
T5 construct: gene NUAK2
T5 sequence (Q9H093 1-628): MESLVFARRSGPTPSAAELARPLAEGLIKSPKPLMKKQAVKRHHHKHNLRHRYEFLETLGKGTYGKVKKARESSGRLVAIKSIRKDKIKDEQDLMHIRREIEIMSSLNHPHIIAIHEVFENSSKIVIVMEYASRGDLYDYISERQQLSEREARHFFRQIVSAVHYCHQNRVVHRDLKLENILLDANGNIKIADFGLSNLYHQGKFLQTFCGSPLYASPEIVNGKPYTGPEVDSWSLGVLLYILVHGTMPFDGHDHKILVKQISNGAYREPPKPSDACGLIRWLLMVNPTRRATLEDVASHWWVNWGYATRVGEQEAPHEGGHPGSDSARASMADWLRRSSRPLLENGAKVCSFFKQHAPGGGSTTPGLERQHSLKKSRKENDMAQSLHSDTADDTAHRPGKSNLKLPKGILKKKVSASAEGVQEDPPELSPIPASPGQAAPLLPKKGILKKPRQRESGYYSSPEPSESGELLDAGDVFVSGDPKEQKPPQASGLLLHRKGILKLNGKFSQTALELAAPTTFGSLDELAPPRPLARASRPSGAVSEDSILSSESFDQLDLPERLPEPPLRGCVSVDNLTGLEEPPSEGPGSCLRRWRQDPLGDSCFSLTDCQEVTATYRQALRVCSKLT

ROS1 = ROS1 (Homo sapiens, UniProt P08922)
[2] = read-out: Talazoparib (BMN 673) / %Ctrl @ 10000nM
[3] = read-out: Olaparib / %Ctrl @ 10000nM
[4] = read-out: Niraparib (MK-4827) / %Ctrl @ 10000nM
[5] = read-out: Rucaparib / %Ctrl @ 10000nM, binding competition, % of control

For `Cn1ncnc1[C@H]1c2n[nH]c(=O)c3cc(F)cc(c23)N[C@@H]1c1ccc(F)cc1` [Talazoparib], the percent of control binding at 10 µM (TNK1; [2]) was 93%, the percent of control binding at 10 µM (MRCKB; [2]) was 100% and the percent of control binding at 10 µM (BMPR2; [2]) was 100%. For the same compound, the percent of control binding at 10 µM [1, 2] was 84%, the percent of control binding at 10 µM (SNARK; [2]) was 100% and the percent of control binding at 10 µM (ROS1; [2]) was 94%.

Work on `O=C(c1cc(Cc2n[nH]c(=O)c3ccccc23)ccc1F)N1CCN(C(=O)C2CC2)CC1` [Olaparib] yielded a percent of control binding at 10 µM (TNK1; [3]) of 95%, a percent of control binding at 10 µM (MRCKB; [3]) of 100% and a percent of control binding at 10 µM (BMPR2; [3]) of 80%. The percent of control binding at 10 µM [1, 3] was 79%, the percent of control binding at 10 µM (SNARK; [3]) was 72% and the percent of control binding at 10 µM (ROS1; [3]) was 97%.

Compound `NC(=O)c1cccc2cn(-c3ccc([C@@H]4CCCNC4)cc3)nc12` [Niraparib] has a percent of control binding at 10 µM (TNK1; [4]) of 56%, a percent of control binding at 10 µM (MRCKB; [4]) of 98% and a percent of control binding at 10 µM (BMPR2; [4]) of 96%. The percent of control binding at 10 µM [1, 4] was 37%, the percent of control binding at 10 µM (SNARK; [4]) was 98% and the percent of control binding at 10 µM (ROS1; [4]) was 80%.

For `CNCc1ccc(-c2[nH]c3cc(F)cc4c3c2CCNC4=O)cc1` [Rucaparib], the percent of control binding at 10 µM (TNK1; [5]) was 91%, the percent of control binding at 10 µM (MRCKB; [5]) was 100% and the percent of control binding at 10 µM (BMPR2; [5]) was 83%. It also gave a percent of control binding at 10 µM [1, 5] of 7.6%, a percent of control binding at 10 µM (SNARK; [5]) of 50% and a percent of control binding at 10 µM (ROS1; [5]) of 82%.
